Reference: US4943574A, “(1H-azol-1-ylmethyl) substituted benzotriazole derivatives and pharmaceutical compositions containing them” (Janssen Pharmaceutica N.V., priority 1989, dated 1990)
Read-outs that look alike come from different tables or passages of the source.

Columns and labels:
aromatase [1] = experiment: In vivo-inhibition of the aromatase activity (plasma estradiol in PMSG-injected immature female Wistar rats); design: species or system rat (immature female Wistar rats)
Description: Immature female Wistar rats weighing 120 g were injected subcutaneously with 200 I.U. of pregnant mare's serum gonadotropin (PMSG). […] Control animals received 20% polyethyleneglycol only. Two hours following drug or placebo administration the rats were killed by decapitation and trunk blood was collected on heparine. Plasma estradiol concentrations were measured by standard radio-immunological procedures.

aromatase [2] = molecular target: T1, aromatase (Homo sapiens, UniProt P11511); experiment: biochemical; conditions: read-out: IC50-values (concentration of the compound required to obtain 50% inhibition of the estrogen synthesis)
T1 sequence (P11511 1-503): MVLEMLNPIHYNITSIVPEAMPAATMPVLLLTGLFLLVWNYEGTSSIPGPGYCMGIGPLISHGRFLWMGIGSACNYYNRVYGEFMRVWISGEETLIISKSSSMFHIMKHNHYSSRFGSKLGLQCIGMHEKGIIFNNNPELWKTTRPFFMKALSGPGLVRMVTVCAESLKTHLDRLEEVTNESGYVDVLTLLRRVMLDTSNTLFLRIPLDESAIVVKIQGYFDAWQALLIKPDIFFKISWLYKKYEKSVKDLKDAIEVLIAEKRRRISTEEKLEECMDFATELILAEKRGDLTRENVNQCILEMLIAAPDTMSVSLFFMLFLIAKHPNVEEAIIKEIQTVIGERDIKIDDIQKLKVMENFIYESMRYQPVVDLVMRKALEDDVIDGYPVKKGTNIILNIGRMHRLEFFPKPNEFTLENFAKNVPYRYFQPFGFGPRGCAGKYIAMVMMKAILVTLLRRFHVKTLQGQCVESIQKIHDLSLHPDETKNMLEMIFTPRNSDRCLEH
Description: Human placental microsomes were diluted in potassium phosphate buffer (0.1M, pH 7.4) to give about 50% conversion of androgens to estrogens (protein content: about 0.5 mg). Four ml human placental microsomes were incubated in a final volume of 5 ml with 0.2 μCi1,2[3H]-androstenedione, 2 μg androstendione and 5 μl of test compound and/or dimethyl sulfoxide (DMSO). […] The reaction was initiated by the addition of androstenedione and proceeded for 30 min at 37° C. During the incubation period, the mixtures were gassed with air. In this assay, aromatization of androstenedione results in the production of [3H]-H2 O which is isolated by extracting the samples with chloroform to remove the free steroid.

[3] = 1 mg/kg oral gavage, two hours following administration, PMSG-injected immature female Wistar rats
[4] = human placental microsomes, 30 min at 37° C., pH 7.4, 1,2[3H]androstenedione

| Structure (SMILES) | IC50 (aromatase [2]; [4]) [nM] | % recovery estradiol (plasma estradiol relative to the controls) (aromatase [1]; rat, in vivo) [%] | % recovery estradiol (plasma estradiol relative to the controls) (aromatase [1]; [3]) [%] | IC50 (aromatase [2]) [nM] |
| --- | --- | --- | --- | --- |
| Clc1ccc(C(c2ccc3nnn(-c4ccccc4)c3c2)n2ccnc2)cc1.O=[N+]([O-])O (stereo not drawn) | – | 21 | – | – |
| Cn1nnc2ccc(C(c3ccccc3)n3ccnc3)cc21 (stereo not drawn) [Compound 7] | 25.7 | – | 7 | – |
| CCCCn1nnc2ccc(C(c3ccc(Cl)cc3)n3ccnc3)cc21 (stereo not drawn) [Compound 15] | 22.6 | – | 2 | – |
| CCCCn1nnc2ccc(C(c3ccc(F)cc3)n3ccnc3)cc21 (stereo not drawn) [Compound 17] | 18.2 | – | 7 | – |
| Cn1nnc2ccc(C(c3cccc(Cl)c3)n3ccnc3)cc21 (stereo not drawn) [Compound 28] | 25.3 | – | 6 | – |
| Cn1nnc2ccc(C(c3ccc(Cl)cc3)n3ccnc3)cc21 (stereo not drawn) [Compound 30] | 22.2 | – | 7 | – |
| CCCC(c1ccc2nnn(C)c2c1)n1ccnc1 (stereo not drawn) [Compound 31] | 34.2 | – | 8 | – |
| Cn1nnc2ccc(C(c3cccc(F)c3)n3ccnc3)cc21 (stereo not drawn) [Compound 33] | 24.6 | – | 5 | – |
| Cn1nnc2ccc(C(c3cccc(Br)c3)n3ccnc3)cc21 (stereo not drawn) [Compound 50] | 18.3 | – | 1 | – |
| Cn1nnc2ccc(C(c3ccc(Br)cc3)n3ccnc3)cc21 (stereo not drawn) [Compound 51] | 22.2 | – | 7 | – |
| Cn1nnc2ccc(C(c3ccc(C(F)(F)F)cc3)n3ccnc3)cc21 (stereo not drawn) [Compound 55] | 18.8 | – | 3 | – |
| Cn1nnc2ccc(C(c3ccccc3Cl)n3ccnc3)cc21 (stereo not drawn) [Compound 56] | 21.5 | – | 8 | – |
| COc1ccc(C(c2ccc3nnn(C)c3c2)n2ccnc2)cc1 (stereo not drawn) [Compound 59] | 18 | – | – | – |
| Cn1nnc2ccc(C(c3ccsc3)n3ccnc3)cc21 (stereo not drawn) [Compound 69, 6-[(1H-imidazol-1-yl) (3-thienyl)methyl]-1-methyl-1H-benzotriazole] | 29 | – | 5 | – |
| CCCCn1nnc2ccc(C(c3ccccc3)n3ccnc3)cc21.O=C(O)C(=O)O (stereo not drawn) [Compound 75, 1-butyl-6-[(1H-imidazol-1-yl)phenylmethyl]-1H-benzotriazole ethanedioate(1:1)] | 24.2 | – | 27 | – |
| CC(C)n1nnc2ccc(C(c3ccccc3)n3ccnc3)cc21.O=C(O)C(=O)O (stereo not drawn) [Compound 76, 6-[(1H-imidazol-1-yl)phenylmethyl]-1-(1-methylethyl)-1H-benzotriazole ethanedioate(1:1)] | 34.7 | – | 9 | – |
| CC(C)n1nnc2ccc(Cn3ccnc3)cc21 [Compound 87] | 26.9 | – | 5 | – |

| Structure (SMILES) | IC50 (aromatase [2]; [4]) [nM] | % recovery estradiol (plasma estradiol relative to the controls) (aromatase [1]; rat, in vivo) [%] | % recovery estradiol (plasma estradiol relative to the controls) (aromatase [1]; [3]) [%] | IC50 (aromatase [2]) [nM] |
| --- | --- | --- | --- | --- |
| Cn1nnc2ccc(C(c3ccccc3)n3ccnc3)cc21 (stereo not drawn) [Compound 90] | 22.7 | – | 5 | – |
| Fc1cccc(Cn2nnc3ccc(Cn4ccnc4)cc32)c1 [Compound 99] | 17.8 | – | 11 | – |
| CCC(C)n1nnc2ccc(Cn3ccnc3)cc21 (stereo not drawn) [Compound 101] | 17.4 | – | 7 | – |
| CCn1nnc2ccc(Cn3ccnc3)cc21 [Compound 102] | 31.7 | – | 2 | – |
| c1ccc(C(c2ccc3nnn(C4CCCCC4)c3c2)n2ccnc2)cc1 (stereo not drawn) [Compound 104] | 20.6 | – | 9 | – |
| c1ccc2c(c1)CCCC2n1nnc2ccc(Cn3ccnc3)cc21 (stereo not drawn) [Compound 105] | 19.8 | – | 14 | – |
| C=CCn1nnc2ccc(Cn3ccnc3)cc21 [Compound 106] | 24.4 | – | 8 | – |
| OCCCn1nnc2ccc(Cn3ccnc3)cc21 [Compound 109] | 26.2 | – | – | – |
| Fc1ccc(C(c2ccc3[nH]nnc3c2)n2ccnc2)cc1 (stereo not drawn) [Compound 113] | 18.8 | – | 4 | – |
| CC(C)n1nnc2ccc(C(c3ccc(Cl)cc3)n3ccnc3)cc21 (stereo not drawn) [Compound 116] | 24.9 | – | 20 | – |
| C#CCOn1nnc2ccc(Cn3ccnc3)cc21 [Compound 179] | 23.2 | – | – | – |
| c1ccc(COn2nnc3ccc(C(c4ccccc4)n4ccnc4)cc32)cc1 (stereo not drawn) [Compound 188] | 18.2 | – | – | – |
| c1ccc(-c2ccc(COn3nnc4ccc(Cn5ccnc5)cc43)cc2)cc1 [Compound 191] | 23.4 | – | – | – |
| CCOC(=O)COn1nnc2ccc(Cn3ccnc3)cc21 [Compound 198] | 18 | – | – | – |
| Cc1cncn1C(c1ccccc1)c1ccc2nnn(OCc3ccccc3)c2c1 (stereo not drawn) [Compound 213] | 36.2 | – | – | – |
| COCCOn1nnc2ccc(Cn3ccnc3)cc21 [Compound 220, 6-(1H-imidazol-1-ylmethyl)-1-(2-methoxyethoxy)-1H-benzotriazole] | 20 | – | – | – |
| Clc1ccc(C(c2ccc3nnn(-c4ccccc4)c3c2)n2ccnc2)cc1.O=[N+]([O-])O (stereo not drawn) [mononitrate] | – | – | – | 17.6 |

The remaining compounds from weak to strong by IC50 (aromatase [2]; [4]), led by results:

| IC50 (aromatase [2]; [4]) [nM] | Structure (SMILES) | % recovery estradiol (plasma estradiol relative to the controls) (aromatase [1]; rat, in vivo) [%] | % recovery estradiol (plasma estradiol relative to the controls) (aromatase [1]; [3]) [%] | IC50 (aromatase [2]) [nM] |
| --- | --- | --- | --- | --- |
| 17 | CCCCCCCCCOn1nnc2ccc(Cn3ccnc3)cc21 [Compound 203] | – | – | – |
| 16.6 | Cn1nnc2ccc(C(c3ccc(Cl)cc3)n3ccnc3)cc21 (stereo not drawn) [Compound 48] | – | 6 | – |
| 16.3 | c1cn(Cc2ccc3nnn(C4CC5CCC4C5)c3c2)cn1 (stereo not drawn) [Compound 103] | – | 5 | – |
| 16 | CC(C)On1nnc2ccc(C(c3ccccc3)n3ccnc3)cc21 (stereo not drawn) [Compound 2] | – | 20 | – |
| 16 | CCOn1nnc2ccc(C(c3ccccc3)n3ccnc3)cc21 (stereo not drawn) [Compound 4] | – | – | – |
| 15.9 | Cn1nnc2ccc(C(c3ccc(F)cc3)n3ccnc3)cc21 (stereo not drawn) [Compound 29] | – | 7 | – |
| 15.2 | c1cn(Cc2ccc3nnn(CC4CC4)c3c2)cn1 [Compound 108] | – | 3 | – |
| 15 | CCCn1nnc2ccc(Cn3ccnc3)cc21 [Compound 89] | – | 5 | – |
| 14.4 | c1ccc2c(c1)CCC2n1nnc2ccc(Cn3ccnc3)cc21 (stereo not drawn) [Compound 115] | – | 22 | – |
| 14.3 | c1cn(Cc2ccc3nnn(C4CCCCCC4)c3c2)cn1 [Compound 100] | – | 3 | – |
| 14.3 | c1csc(Cn2nnc3ccc(Cn4ccnc4)cc32)c1 [Compound 111] | – | 19 | – |
| 14.1 | c1cn(Cc2ccc3nnn(C4CCCC4)c3c2)cn1 [Compound 107] | – | 6 | – |
| 13.1 | c1cn(Cc2ccc3nnn(CC4CCCCC4)c3c2)cn1 [Compound 97] | – | 10 | – |
| 12 | CCCCOn1nnc2ccc(C(c3ccccc3)n3ccnc3)cc21 (stereo not drawn) [Compound 6] | – | – | – |
| 12 | c1ccc(SCOn2nnc3ccc(Cn4ccnc4)cc32)cc1 [Compound 176] | – | – | – |
| 11 | c1cncc(COn2nnc3ccc(Cn4ccnc4)cc32)c1 [Compound 196] | – | – | – |
| 11 | CCC(C)On1nnc2ccc(Cn3ccnc3)cc21 (stereo not drawn) [Compound 197] | – | – | – |
| 11 | c1ccc(CCOn2nnc3ccc(Cn4ccnc4)cc32)cc1 [Compound 208] | – | – | – |
| 10.5 | CC(C)CCn1nnc2ccc(Cn3ccnc3)cc21 [Compound 93] | – | 8 | – |
| 8.9 | CC(C)CCn1nnc2ccc(C(c3ccc(Cl)cc3)n3ccnc3)cc21 (stereo not drawn) [Compound 120] | – | – | – |
| 8.8 | Clc1ccc(Cn2nnc3ccc(Cn4ccnc4)cc32)cc1 [Compound 91] | – | – | – |
| 8.7 | c1ccc(CCn2nnc3ccc(Cn4ccnc4)cc32)cc1 [Compound 92] | – | 15 | – |
| 8 | CCCCCCCOn1nnc2ccc(Cn3ccnc3)cc21 [Compound 206] | – | – | – |
| 7.5 | CCCCn1nnc2ccc(C(c3cccc(Cl)c3)n3ccnc3)cc21 (stereo not drawn) [Compound 23] | – | – | – |
| 5.2 | c1ccc(COn2nnc3ccc(Cn4ccnc4)cc32)cc1 [Compound 228, 6-(1H-imidazol-1-ylmethyl)-1-(phenylmethoxy)-1H-benzotriazole] | – | – | – |
